SMILES strings stand for the structures.

We go through one compound from patent US20250345370A1, “MICROBIAL LIBERATION OF N-METHYLSEROTONIN FROM ORANGE FIBER” (Washington University, priority 2022, published 2025).

Data set [1] can be described thus: Tissue metabolites (liver glycogen and precursors, colonic glutamate) in germ-free mice given N-methylserotonin. The class given is in vivo, germ-free C57BL/6J mice. The method, then:
(§1) For experiments involving administration of N-methylserotonin to germ-free mice, a stock solution of the compound (100 mg/mL, Santa Cruz Biotechnologies) was prepared in sterile water and filter sterilized ([…]; Nalgene). The outer surface of tubes containing the stock solution was sterilized with Clidox (Pharmacal) and the tubes were introduced into gnotobiotic isolators using standard procedures. The stock solution was then diluted in darkened glass water bottles (Ancare) in order to administer doses of 1 mg/kg/day or 50 mg/kg/day (based on an experimentally determined average consumption of 5 mL of water/day/mouse). Every four days, bottles were replaced with new ones containing fresh N-methylserotonin. Each of the three arms of the experiment, including the control arm where unsupplemented drinking water was administered, consisted of 5 mice.
(§2) Fecal samples and body weights were collected weekly, while food and water intake were monitored daily by comparing pellet mass in the food hopper and the volume of water in water bottles at the beginning and end of a 24 h period and dividing these values by the number of mice per cage. All animals were euthanized between 0830 h and 0930 h without prior fasting. Luminal contents from the proximal and distal halves of the small intestine, the cecum and the colon, host tissues (liver, epididymal fat pads, gastrocnemius muscle, the distal quarter of the small intestine (ileum), cecum and entire colon) plus serum were collected, flash frozen in liquid nitrogen and stored at −80° C. prior to analyses.
Other metabolites—Tissue (at least 10 mg) was placed in a reinforced 2 mL tube. A 20 times weight volume of extraction solvent was added (40% acetonitrile, 40% methanol, 20% water) and the tissue was disrupted as described herein. Samples were centrifuged at 12,000×g for 10 minutes at 4° C. A 200 μL aliquot of the resulting supernatant was transferred to a 2 mL glass tube and dried in a speed vacuum at room temperature (25° C.) for two hours. The dry extract was reconstituted in 100 μL of 90% water/10% acetonitrile and stored at −4° C. prior to injection; 5 μL was injected into a 1290 Infmity II UHPLC system coupled to a 6470 Triple Quadrupole LC/MS system equipped with a Jet Stream electrospray ionization source (Agilent Technologies). Chromatographic separation was performed on an Agilent ZORBAX Extend C18, […], 1.8 μm column, using the following gradient conditions: mobile phase A, 10 mM tributylamine and 15 mM acetic acid in 3% methanol (v/v); mobile phase B, 10 mM tributylamine and 15 mM acetic acid in 100% methanol; 0% solvent B (0-2 minutes); 0-20% solvent B (2-7.5 minutes); 20-45% solvent B (7.5-13 minutes); 45-99% solvent B (13-20 minutes); 99-0% solvent B (20-22 minutes) at a flow rate of 0.25 mL/minute. […] Transitions were taken from the Agilent Metabolomics dMRM Database.
Glutamate is known to […] Arntl when directly applied to tissue slices. Knockout of the Per3 homolog Per2 reduces expression of the glutamate transporter (Eaatl, Slc1A3) and uptake of glutamate in the brain. These observations raise the possibility that one way that N-methylserotonin might influence colonic circadian regulators is through its effects on glutamate levels in this tissue.

The nature of data set [2]: N-methylserotonin in drinking water of germ-free mice: body weight, epididymal fat, intake, survival. The format is in vivo, germ-free C57BL/6J mice. Conditions: for epididymal fat mass: vs untreated controls. The method, then: as §1, §2
Host effects of N-methylserotonin. To characterize the effects of N-methylserotonin on host physiology and metabolism, 12-week-old germ-free C57BL/6J mice were fed the unsupplemented HiSF-LoFV diet and administered N-methylserotonin via their drinking water at doses of 1 mg/kg/day or 50 mg/kg/day for 21 days (FIG. 2A). The 1 mg/kg/day dose was experimentally determined to result in fecal N-methylserotonin levels that were equivalent to those documented in mice colonized with the 14-member community consuming the orange fiber-supplemented HiSF-LoFV diet (133.5±15 ng/g versus 131±19 ng/g feces, respectively; p=0.92, unpaired t-test). The 50 mg/kg/d dose was equivalent to the estimated total amount of N-methylserotonin consumed each day in the 10% orange fiber-containing diet (based on the yield obtained after in vitro enzymatic digestion of the fiber with T. reesei cellulase).

With `CNCCc1c[nH]c2ccc(O)cc12` [N-methylserotonin], in data set [1] (1 mg/kg/day), the “liver glucose-6-phosphate” value is “the lower dose did not”, the liver glycogen entry is “the lower dose did not”, the liver uridine result is recorded as “the lower dose did not” and the liver uridine monophosphate result is listed as “the lower dose did not”. Also, in data set [1] (50 mg/kg/day), the “liver glucose-6-phosphate” value was “statistically significant decrease”, the liver glycogen result is given as “statistically significant increases”, the liver uridine entry is listed as “statistically significant decreases” and the liver uridine monophosphate result is reported as “statistically significant decreases”. In data set [1] (50 mg/kg/day, untreated controls 11±0.9), the “glutamate levels in colonic tissue” value was 21±1.4 ng/mg tissue. In addition, in data set [2] (1 mg/kg/day (lower dose)), the epididymal fat mass entry was “not the lower dose”. The epididymal fat mass entry in data set [2] (50 mg/kg/day (higher dose)) is recorded as “statistically significant reduction”. The mortality result in data set [2] (50 mg/kg/day group, 5 mice) is listed as “one animal died within the first week”. Besides, in data set [2] (drinking water, 21 days, vs untreated), the weight gain result was “statistically significant decrease in weight gain”. Also, the “food and water intake” value in data set [2] (measured daily, all three groups) is on record as “remained consistent”.
